Values of other authors as cited in publication PMC8583936, “Machine Learning Assisted Approach for Finding Novel High Activity Agonists of Human Ectopic Olfactory Receptors” (International Journal of Molecular Sciences, 2021).
Counter-ions that a name gives are not always drawn. Like-named read-outs stand apart in the source and are kept apart here.

Experiments:
[1] = biological target: T1, OR1A1 (Homo sapiens, UniProt Q9P1Q5); conditions: cited from earlier work
T1 sequence (Q9P1Q5 1-309): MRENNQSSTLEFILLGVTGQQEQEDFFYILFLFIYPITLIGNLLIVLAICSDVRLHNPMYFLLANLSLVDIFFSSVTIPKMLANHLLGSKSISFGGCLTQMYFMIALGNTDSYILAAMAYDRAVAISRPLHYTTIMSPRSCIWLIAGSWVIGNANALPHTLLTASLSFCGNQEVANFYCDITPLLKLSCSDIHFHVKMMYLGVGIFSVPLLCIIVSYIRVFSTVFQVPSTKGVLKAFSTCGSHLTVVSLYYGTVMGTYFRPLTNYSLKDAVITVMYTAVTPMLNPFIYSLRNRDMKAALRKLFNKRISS

[2] = biological target: T2, OR2W1 (Homo sapiens, UniProt Q9Y3N9); conditions: cited from earlier work
T2 sequence (Q9Y3N9 1-320): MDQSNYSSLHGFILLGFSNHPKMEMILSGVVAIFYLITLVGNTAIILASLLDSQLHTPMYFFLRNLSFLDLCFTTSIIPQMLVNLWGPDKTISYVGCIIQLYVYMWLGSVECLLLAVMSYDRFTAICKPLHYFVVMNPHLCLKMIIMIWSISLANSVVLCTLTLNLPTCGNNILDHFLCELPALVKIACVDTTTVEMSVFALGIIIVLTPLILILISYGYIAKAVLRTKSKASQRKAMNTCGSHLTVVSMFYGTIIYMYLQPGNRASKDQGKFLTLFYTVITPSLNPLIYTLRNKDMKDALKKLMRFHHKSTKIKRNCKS

[3] = Table S1, ref Supplement references [1]-[9] as printed after each odorant name
[4] = Table S2, ref Supplement references [2]-[12] as printed after each odorant name

Row | Structure (SMILES) | Class (agonist / non-agonist / conflicting info.) for OR1A1 [1] | Class (agonist / non-agonist / antagonist / conflicting info.) for OR2W1 [2] | Class (agonist / non-agonist / conflicting info.) for OR1A1 [1, 3] | Class (agonist / non-agonist / antagonist / conflicting info.) for OR2W1 [2, 4]
1 | O=c1cc(O)c2ccccc2o1 [4-hydroxycoumarin] | Non-agonist | Non-agonist |  | 
2 | Cc1ccc(O)cc1 [4-methylphenol] |  |  | Non-agonist | Non-agonist
3 | CCCCC1OC(=O)CC1C (stereo not shown) [5-Butyl-4-methyloxolan-2-one] |  |  | Non-agonist | Non-agonist
4 | CCC1OC(=O)C(O)=C1C (stereo not shown) [5-Ethyl-3-hydroxy-4-methylfuran-2(5H)-one] |  |  | Non-agonist | Non-agonist
5 | CCCCCCC1CCC(=O)O1 (stereo not shown) [5-Hexyloxolan-2-one] |  |  | Non-agonist | Non-agonist
6 | CCCCCCCCC1CCC(=O)O1 (stereo not shown) [5-Octyloxolan-2-one] |  |  | Non-agonist | Non-agonist
7 | CCCCCC1CCC(=O)O1 (stereo not shown) [5-Pentyloxolan-2-one] |  |  | Agonist | Non-agonist
8 | CCCC1CCCC(=O)O1 (stereo not shown) [6-Propyloxan-2-one] |  |  | Non-agonist | Non-agonist
9 | COc1ccc2ccc(=O)oc2c1 [7-methoxycoumarin] |  |  | Non-agonist | Non-agonist
10 | CC(C)CCCCCCCCCCC=O [12-methyltridecanal] |  |  | Non-agonist | Non-agonist
11 | CC/C=C\CC/C=C/CO [(2E,6Z)-Nona-2,6-dien-1-ol] |  |  | Non-agonist | Non-agonist
12 | CCCCC[C@H](C)O [(+)-2-heptanol] |  |  | Non-agonist | Non-agonist
13 | CC12CCC(CC1=O)C2(C)C (stereo not drawn) [(+)-Camphor] |  |  | Non-agonist | Non-agonist
14 | C=C(C)[C@H]1CC=C(C)C(=O)C1 [(+)-Carvone] |  |  | Agonist | Agonist
15 | C=C(C)[C@@H]1CC[C@@H](C)C(=O)C1 [(+)-Dihydrocarvone] |  |  | Agonist | Agonist
16 | CC(C)=C1CC[C@@H](C)CC1=O [(+)-Pulegone] | Non-agonist | Non-agonist |  | 
17 | C=C1CC[C@]2(C(C)C)C[C@H]12 [(+)-Sabinene] |  |  | Non-agonist | Non-agonist
18 | CC1(C)[C@H]2CC[C@]1(C)C(=O)C2 [(-)-Camphor] |  |  | Non-agonist | Non-agonist
19 | CCCC/C=C/C=O [(E)-2-heptenal] |  |  | Non-agonist | Agonist
20 | CCCCCC[C@@H](C)O [(R)-(-)-2-octanol] |  |  | Non-agonist | Non-agonist
21 | CCCCCC[C@H](C)O [(S)-(+)-2-octanol] |  |  | Non-agonist | Non-agonist
22 | CCOC(C)OCC [Acetal] |  |  | Non-agonist | Non-agonist
23 | CC=O [Acetaldehyde] | Non-agonist | Non-agonist |  | 
24 | CC(=O)O [Acetic acid] |  |  | Non-agonist | Non-agonist
25 | CC(=O)C(C)O (stereo not shown) [Acetoin] |  |  | Non-agonist | Non-agonist
26 | CC(=O)c1ccccc1 [Acetophenone] | Non-agonist | Agonist |  | 
27 | C=CCc1ccccc1 [Allyl benzene] | Non-agonist | Non-agonist |  | 

Row | Structure (SMILES) | Class (agonist / non-agonist / conflicting info.) for OR1A1 [1] | Class (agonist / non-agonist / antagonist / conflicting info.) for OR2W1 [2] | Class (agonist / non-agonist / conflicting info.) for OR1A1 [1, 3] | Class (agonist / non-agonist / antagonist / conflicting info.) for OR2W1 [2, 4]
28 | C=CCSSCC=C [Allyl disulfide] | Non-agonist | Non-agonist |  | 
29 | C=CCOC(=O)CCCCCC [Allyl heptanoate] | Agonist | Non-agonist |  | 
30 | C=CCSC [Allyl methyl sulfide] |  |  | Non-agonist | Non-agonist
31 | C=CCOC(=O)Cc1ccccc1 [Allyl phenylacetate] | Agonist | Agonist |  | 
32 | CC1=CC[C@H](C(C)C)C=C1 [Alpha-phellandrene] |  |  | Non-agonist | Non-agonist
33 | CCCCCOC(=O)CCC [Amyl butyrate] |  |  | Conflicting info. | Non-agonist
34 | CCCCCOC(=O)CCCCC [Amyl hexanoate] |  |  | Conflicting info. | Non-agonist
35 | C[C@@]12C=CC[C@H]1[C@@H]1CCC3=CC(=O)CC[C@]3(C)[C@H]1CC2 [Androstadienone] | Agonist | Antagonist |  | 
36 | C[C@]12CCC(=O)C[C@@H]1CC[C@@H]1[C@@H]2CC[C@]2(C)C=CC[C@@H]12 [Androstenone] | Conflicting info. | Antagonist |  | 
37 | COc1ccc(C=O)cc1 [Anisaldehyde] |  |  | Non-agonist | Non-agonist
38 | c1ccccc1 [Benzene] |  |  | Conflicting info. | Non-agonist
39 | CC(=O)OCc1ccccc1 [Benzyl acetate] |  |  | Agonist | Agonist
40 | C/C=C/C(=O)C1=C(C)CCCC1(C)C [Beta-damascone] |  |  | Conflicting info. | Non-agonist
41 | CSCSC [Bis(methylthio)methane] | Non-agonist | Non-agonist |  | 
42 | CCCC=O [Butanal] |  |  | Non-agonist | Non-agonist
43 | CCCCOC(C)=O [Butyl acetate] |  |  | Non-agonist | Non-agonist
44 | CCCCOC(=O)c1ccccc1N [Butyl anthranilate] | Agonist | Agonist |  | 
45 | CCCCOC(=O)C(C)OC(=O)CCC (stereo not shown) [Butyl butyryl lactate] |  |  | Non-agonist | Non-agonist
46 | CCCCOC=O [Butyl formate] |  |  | Conflicting info. | Conflicting info.
47 | CCCCCCC(=O)OCCCC [Butyl heptanoate] |  |  | Non-agonist | Non-agonist
48 | CCCC(=O)O [Butyric acid] |  |  | Conflicting info. | Conflicting info.
49 | O=C/C=C/c1ccccc1 [Cinnamaldehyde] |  |  | Agonist | Non-agonist
50 | CC(=O)OC/C=C/c1ccccc1 [Cinnamyl acetate] |  |  | Non-agonist | Agonist
51 | OCC=Cc1ccccc1 [Cinnamyl alcohol] |  |  | Non-agonist | Non-agonist
52 | CC/C=C\CCO [Cis-3-hexen-1-ol] |  |  | Conflicting info. | Conflicting info.
53 | CC(C)=CCC/C(C)=C/C=O [Citral] | Conflicting info. | Conflicting info. |  | 
